Values of other authors as cited in EP0956866A1, “DRUGS FOR AMELIORATING OPHTHALMIC CIRCULATORY DISTURBANCE” (KIRIN BEER KABUSHIKI KAISHA, priority 1996, dated 1998).

Tests used:
[1] = disclosed in WO89/10757
[2] = literature report

| Compound | ocular pressure [1] | ocular blood flow [2] |
| --- | --- | --- |
| CC1(C)Oc2ccc(C#N)cc2C(N2CCCC2=O)C1O (stereo not drawn) [cromakalim] | lower the ocular pressure | lowers the ocular blood flow |
| CC(N/C(=N\C#N)Nc1ccncc1)C(C)(C)C (stereo not drawn) [pinacidil] | lower the ocular pressure | – |
